The source of these data is patent publication US10314870B2, “Tropism modified cancer terminator virus (Ad.5/3 CTV;AD.5/3-CTV-M7)” (priority 2012, dated 2019).

Series [1] has as its system primary human GBM cells (GBM6, GBM12). As to the kind of experiment: Cell death by trypan blue exclusion in primary human GBM cells. In kind it is cell-based. From the text: The pooled cell pellets were resuspended and mixed with trypan blue dye.
Series [2] relates to PDAC cell lines. As to the kind of experiment: MTT cell viability assay in pancreatic cancer cell lines. In kind it is cell-based, human. To be noted: 200 μM. On the procedure: FIGS. 13A-D. Cancer-specific oncolytic effects of CTV-M7 in pancreatic cancer cells. Pancreatic cancer cells were treated with non-replicating Ad.5-mda-7 or Ad.5/3-mda-7 as well as conditional replication-competent Ads (CRCA) i.e., Ad.5-CTV-M7 and Ad.5/3-CTV-M7 and MTT assays were performed after 3 days. IC50 was calculated using GraphPad Prism 5.0. Points; mean±S.E. of three different experiments each performed in quadruplicate.
Pancreatic cancer cell lines were infected with Ad in incomplete medium for 3 h followed by treatment with Perillyl alcohol (POH) (200 μM) in complete medium (10% FBS) for 72 h, and cell proliferation assays were performed at O.D. 560 nm using cell proliferation assays after adding 100 μl of 3-(4,5-dimethylthiazol-2-yl)-2,5-diphenyltetrazolium bromide (Sigma Aldrich) (MTT) dye (1 mg/ml) (Sigma-Aldrich).
(In general: Tetrazolium assays rely on reduction of a dye to a coloured formazan, in cell work by metabolically active cells.)

The test system of series [3] is MIA PaCa-2 and BxPC-3 cells. As to the kind of experiment: ROS formation, carboxy-H2DCFDA fluorescence. In kind it is cell-based, human. As to conditions: 200 μM. How it is done:
FIG. 14. Temporal kinetics of reactive oxygen species (ROS) formation induced by POH. MIA PaCa-2 and BxPC-3 cells were stained with carboxy-H2DCF-DA in PBS for 30 min followed by treatment of POH, and fluorescence was measured using a Flurometer with a green filter at the indicated time points. The readings noted were the difference between POH-treated group compared to untreated control.
To determine ROS production, cells were stained with 100 μl of 10 μM carboxy-H2DCFDA (Molecular Probes™, Invitrogen) in PBS for 30 min followed by treatment with Perillyl alcohol and fluorescence was measured with a Fluorometer using a green filter at the indicated time points.

Series [4] relates to MIA PaCa-2/luc xenografts. As to the kind of experiment: MIA PaCa-2/luc xenografts on both flanks, Ad/MB by tail vein with UTMD on left tumor. To be noted: POH 75 mg/kg i.p. daily; Ad.5-vec+POH compared to Ad.5/3-vec. Type of series: in vivo, nude mice. On the procedure: FIG. 11A-E. Ad.5/3-CTV-M7 in combination with POH completely eradicates primary and distant tumors in nude mice bearing human pancreatic tumor xenografts. Tumor xenografts generated from MIA-PaCa-2 cells stably expressing a luciferase gene (MIA PaCa-2-luc) were established in both the left and right flanks of nude mice. Tumors on the left flank were sonoporated for 10 min following tail-vein injection of the indicated complement treated Ad/MB complex, and treated as described in Materials and Methods section for 3 weeks starting from day 14 (1 injection/week). POH was administered i.p. daily for 4 weeks from day 1 of implantation of cells in nude mice. (A) Bioluminescence imaging (BLI) was performed using Xenogen In Vivo Imaging System (IVIS). BLI was performed every week and luminescence was quantified and tumor growth response curve of the left flank (B) and right flank or distant tumor (C) was plotted. (D) Secreted MDA-7/IL-24 in blood serum was measured using an MDA-7/IL-24 ELISA kit. (E) There was significant increase in ‘bystander’ effect of MDA-7/IL-24 in inhibiting in vivo tumor growth as measured by BLI. […]
Athymic nude mice were injected s.c. in both flanks with 5×10^6 MIA PaCa-2/luc (a stable clone of MIA PaCa-2 cells containing integrated pGL-3/luc). […] Images were analyzed by Living Image software. […]

For series [5] the following is noted: cited from earlier work.
In series [6] the test system is GBM6 cells. As to the kind of experiment: Colony formation assay with Calcusyn analysis. Type of series: cell-based, human. As to conditions: GBM cells. How it is done: GBM6 cells were plated as single cells (500-2,500 per 60-mm dish, in sextuplicate). […] Forty-eight h later cells were washed free of drugs and colonies were permitted to form for 20 days. (n=3, +/−SEM). Using the Calcusyn for Windows program we calculated the fraction affected (Fa) and the Combination Index (CI). A CI value of less than 1.00 indicates a synergy of interaction.

In series [7] the test system is GBM6 cells. As to the kind of experiment: Autophagy, LC3-GFP vesicle formation. Type of series: cell-based, human. How it is done: FIG. 19A-D. Induction of ER stress and autophagy plays a role in the interaction between MDA-7/IL-24 and HDACIs. Panel A. GBM6 cells were transfected in quadruplicate with a plasmid to express an LC3 (ATG8)-GFP fusion protein and in parallel transfected with scrambled siRNA (siSCR) or an siRNA to knock down Beclin/expression. Twenty-four h after transfection cells were treated with GST or GST-MDA-7 (20 nM) and/or SBHA (3 μM). Cells (a representative of 40 per well per time point) were examined 6 h, 12 h and 24 h after treatment using an Axiovert microscope (x40) for the formation of punctate vesicles containing LC3-GFP. Data are plotted as the number of LC3-GFP vesicles per cell (n=-2, +/− SEM) (*p<0.05 greater than GST+VEH; **p<0.05 greater than GST-MDA-7+VEH). Panel B. GBM6 cells were transfected with scrambled siRNA (siSCR) or an siRNA to knock down Beclinl expression. Twenty-four h after transfection cells were treated with GST or GST-MDA-7 (20 nM) and/or SBHA (3 μM). Cells were isolated 48 h later and viability determined by trypan blue exclusion (n=3, +/− SEM) (#p<0.05 less than corresponding value in siSCR cells). Panel C. GBM6 cells were transfected with an empty vector control plasmid or a plasmid to express dominant negative PERK. […] Cells were isolated 6 h after exposure and the phosphorylation of PERK and eIF2α determined (representative n=2). […]

With `CCOC(=O)C1=C(N)Oc2ccc(Br)cc2C1C(C#N)C(=O)OCC` (centres unmarked) [HA14-1], the “effect on lethality of Ad.5-mda-7” value in series [1] (GBM6, Ad.5-mda-7 moi 10, obatoclax 0-200 nM or HA14-1 0-10 μM, 24 h) was “enhanced the lethality of Ad.5-mda-7”.
Consider `C=C(C)[C@@H]1CC=C(CO)CC1` [POH, perillyl alcohol], for which the “lethality and proliferation of PDAC cell lines” value in series [2] is “not lethal and does not affect proliferation”. In series [3] (24 h), the “ROS levels at 24 h” value is recorded as “baseline levels”. Also, the “time of maximum ROS levels” value in series [3] (time course) came out at 6 h. Moreover, the ROS induction entry in series [3] (wild type and mutant K-ras pancreatic cell lines) is listed as “sufficient to induce significant amounts of ROS”. In series [4], the “effect of the POH dose with empty vector on tumor growth” value was “non-toxic but therapeutically inactive”. Further, the side effects entry in series [5] (POH 800-1600 mg/m^2/dose) is “minimal side effects”. In addition, the “stability and detection in plasma” value in series [5] (plasma) is “very unstable and cannot be detected in plasma”.
With `C=C(C)[C@@H]1CC=C(C(=O)O)CC1` [Perillic acid], the “plasma concentration associated with minimal toxicities” value in series [5] (plasma) is 500 µM.
`O=C(CCCCCCC(=O)NO)NO` [SBHA, Suberohydroxamic acid]: in series [1] (GBM6, GBM12 infected with Ad.5-mda-7 moi 10, Na Valproate 0.3-1.0 mM, SBHA 0.3-5.0 μM, 48 h, dose-dependent), the “effect on lethality of MDA-7/IL-24” value is recorded as “enhanced the lethality of MDA-7/IL-24”. The “interaction with MDA-7/IL-24 protein in colony formation” value in series [6] is reported as “synergized”. Moreover, in series [7] (SBHA 3 μM with GST-MDA-7 20 nM), the “effect on MDA-7/IL-24 stimulated autophagy levels” value was “enhanced MDA-7/IL-24 stimulated autophagy levels”.
Take `CCCC(CCC)C(=O)[O-].[Na+]` [sodium valproate]: the “interaction with MDA-7/IL-24 protein in colony formation” value in series [6] is given as “synergized”.

B1: GST-MDA-7: bacterially synthesized GST-MDA-7 protein (protein)
chain: QEFHFGPCQVKGVVPQKLWEAFWAVKDTMQAQDNITSARLLQQEVLQNVSDAESCYLVHTLLEFYLKTVFKNYHNRTVEVRTLKSFSTLANNFVLIVSQLQPSQENEMFSIRDSAHRRFLLFRRAFKQLDVEAALTKALGEVDILLTWMQKFYKL
For the molecule B1, the “autophagy (LC3-GFP vesicle) levels” value in series [7] (GST-MDA-7 20 nM, 6 h, 12 h, 24 h, time-dependent) is “increased autophagy”.
